Measured values published in US6908927B2, “Pyridopyranoazepine derivatives, their preparation and their therapeutic application” (Sanofi-Synthelabo, priority 1999, dated 2005).
Counter-ions that a name gives are not always drawn.

melting point: 170 °C (dec.)
SMILES: CCC1c2ncccc2OC2CCN3CCC21C3 (racemic) (as salt: HBr)
